Source: patent publication US9296691B2, “Inhibitors of p75 receptor and their uses” (Horacio Uri Saragovi, priority 2010, dated 2016)

How the values were obtained:
p75-Fc = biological target: T1, p75-Fc (Homo sapiens, UniProt P08138); assay: Competitive ELISA, p75-Fc binding to immobilized NGF; conditions: for remaining activity at 30 µM: 0.75 h, binding to immobilized NGF, no cpd = 100%, p75-Fc 50 nM, as described for FIG. 1A (compounds 30 μM), below 100% indicates inhibition
T1 construct: purchased R&D
T1 sequence (P08138 29-250 limits assumed): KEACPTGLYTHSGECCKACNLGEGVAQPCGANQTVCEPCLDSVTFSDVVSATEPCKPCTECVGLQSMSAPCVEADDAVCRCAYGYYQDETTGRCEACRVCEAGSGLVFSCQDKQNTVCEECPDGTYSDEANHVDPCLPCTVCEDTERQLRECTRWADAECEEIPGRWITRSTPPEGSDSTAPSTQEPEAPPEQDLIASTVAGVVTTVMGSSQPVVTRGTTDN
Method: (§1) The effect of compounds I-B and LM-24 on the binding between NGF and p75 was tested in competitive ELISA assays, where the antagonists prevent soluble p75 from binding to immobilized NGF. The selectivity of antagonism was evaluated by lack of effect upon NGF-TrkA or lack of effect between NGF and anti-NGF monoclonal antibody (mAb) NGF30 interactions (FIG. 1A).
The compound LM-24 has been reported by others (Massa et al., 2006). Binding studies were carried out with all the compounds using I-B as reference.
(§2) Competitive ELISAs were performed as described (Saragovi et al., 1998). The procedure immobilized 50 ng/well NGF, or pro-NGF (Alomone Labs, Israel) onto polystyrene 96-well microtest plates, with washing and blocking with binding buffer (BB; phosphate buffered saline containing 0.5% bovine serum albumin). The following primary reagents in BB were added: recombinant chimeric p75-Fc or recombinant chimeric TrkA-Fc (R&D), or anti-NGF mAb NGF30 (Saragovi et al., 1998); each at 50 nM. The competitors I-B and the other test compounds (or control LM-24) were added at the indicated concentrations, and the plates were incubated for 45 minutes. After washing 3× in BB, HRP-conjugated secondary reagents (Sigma) were added for 30 min (goat anti-human Fc for p75-Fc and for TrkA-Fc; and goat anti-rat Ab for NGF30 mAb), and then wells were washed 3× in BB and 1× in PBS. Peroxidase activity was determined colorimetrically using the substrate TMB One Solution (Promega). The reaction was stopped with 0.5 N H2SO4 and the plates were read at 450 nm (Benchmark Plus, Bio-Rad). Assays were repeated n>4 times, with replicates of 4 wells each assay. […] Wells with no NGF immobilized but with all other reagents added were treated as background (<15% of maximal signals) and standardized to 0% binding.

TrkA-Fc = biological target: T2, TrkA-Fc (Homo sapiens, UniProt P04629); assay: Competitive ELISA, TrkA-Fc binding to immobilized NGF (selectivity control); conditions: for TrkA-Fc binding AVERAGE: binding to immobilized NGF, no cpd = 100%, TrkA-Fc 50 nM, as described for FIG. 1A
T2 construct: purchased R&D
T2 sequence (P04629 33-423 limits assumed): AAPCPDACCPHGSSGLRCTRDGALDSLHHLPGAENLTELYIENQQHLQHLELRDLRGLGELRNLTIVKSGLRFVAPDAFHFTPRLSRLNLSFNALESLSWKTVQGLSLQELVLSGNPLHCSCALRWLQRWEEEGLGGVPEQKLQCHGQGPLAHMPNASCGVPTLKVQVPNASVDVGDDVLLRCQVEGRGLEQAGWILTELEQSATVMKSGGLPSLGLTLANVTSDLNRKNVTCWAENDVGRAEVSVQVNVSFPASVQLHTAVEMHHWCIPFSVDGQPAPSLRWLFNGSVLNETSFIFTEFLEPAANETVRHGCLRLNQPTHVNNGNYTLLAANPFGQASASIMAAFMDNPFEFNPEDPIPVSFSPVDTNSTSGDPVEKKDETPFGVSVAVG
Method: as §1, §2

anti-NGF mAb NGF30 = assay: Competitive ELISA, anti-NGF mAb NGF30 binding to immobilized NGF (selectivity control); conditions: for NGF30 binding AVERAGE: binding to immobilized NGF, no cpd = 100%, mAb NGF30 50 nM, as described for FIG. 1A
Method: as §1, §2

[1] = system: retinal ganglion cells (RGCs); assay: Glaucoma (episcleral vein cauterization) model, quantification of surviving RGCs; type: in vivo; conditions: rat glaucoma, intravitreal injections days 14 and 21, endpoint day 42 (FIG. 2D)
Method: (§3) Wistar rats (female, 250-300 g; Charles River) were kept in a 12 hours dark-light cycle with food and water ad libitum. All animal manipulations were performed between 9 AM and 12 AM. Deep anesthesia was used during cauterization (induction of glaucoma), ON transection, fluorogold labeling, intraocular injection procedures, Optical Coherence Tomography measurements, and euthanasia (ketamine, xylazine, acepromazine injected intraperitoneally: 50/5/1 mg/kg, as per IACUC recommendations). For measuring IOP, light anesthesia was used (a gas mixture of Oxygen, 2% isofluorane mixture, at a rate of 2.5 liter/min, as per IACUC recommendations).
The episcleral vein cauterization (EVC) model of rat (Shi et al., 2007; Shi et al., 2008) was used. […]
(§4) For studies in the glaucoma animal model the injections were performed at days 14 and 21 after cauterization. […] Thus, in this paradigm there is pre-existing damage for 14 days before treatment (measured at ˜8% RGC death (Shi et al., 2007; Shi et al., 2008)); and the treatments require long-lived efficacy in the constant presence of retinal stress due to high IOP. […]
(§5) Quantification of labeled RGCs was performed as reported (Shi et al., 2007; Shi et al., 2008). […] Pictures for each freshly flat-mounted retina were taken using a Zeiss fluorescence microscope (Carl Zeiss Meditec, Jena, Germany), with 12 pictures/retina at 20× magnification. […]

[2] = system: NGI (NFL-GCL-IPL) retinal layers; assay: ON axotomy model, retinal NGI thickness by FD-OCT; type: in vivo; conditions: rat ON axotomy, 3 μg intravitreal immediately after axotomy, days 11 and 14, versus untreated axotomy
Method: Antagonists of p75NTR prevented loss of retinal structure after ON axotomy. The relative in vivo efficacy for I-B and LM-24 was tested using the ON axotomy model. A quantitative non-invasive structural endpoint, FD-OCT, was performed in the same animal over time to measure the integrity of the neuronal layers. We quantified the axons and fibers of the RGCs that contribute to the thickness of the Nerve Fiber Layer (NFL), the Ganglion Cell Layer (GCL), and the Inner Plexiform Layer (IPL), herein termed NGI. Maintenance of NGI structure correlates with RGC health (Bai et al., 2010a).
Wistar rats (female, 250-300 g; Charles River) were kept in a 12 hours dark-light cycle with food and water ad libitum. All animal manipulations were performed between 9 AM and 12 AM. […]
FD-OCT is a non-invasive method that allows time-kinetic studies in the same animal. […] In each B-scan the thickness of the NFL-GCL-IPL (NGI) was measured at four adjacent points at a distance 1.5 mm from the ON head. […]
as §4

[3] = system: retinal ganglion cells (RGCs); assay: ON axotomy model, quantification of surviving RGCs (fluorogold labeled); type: in vivo; conditions: rat ON axotomy, one intravitreal injection 3 μg, day 14; contralateral normal eye = 100%; control axotomy 10%
Method: as §3
The ON axotomy model in the rat (Bai et al., 2010a) was used. […]
as §4, §5

nnr5 cells = assay: Pro-NTF killing assay (MTT), nnr5 cells; type: cell-based; conditions: 50 nM, 72 hours, p<0.05
Method: (§6) The effect of I-B on the pro-apoptotic function of pro-NGF or pro-BDNF was tested in functional MTT assays measuring cell metabolism (FIG. 1B).
(§7) Cells (5,000 cells/well) were cultured in 96-well plates (Falcon, Lincoln Park, N.J.) in normal culture media (RPMI1640, Hepes, Glutamine, 5% serum). Wells were supplemented with NGF, BDNF, pro-NGF, or pro-BDNF (Alomone Labs) (50 nM final), in the presence or absence of I-B (20 μM final). Wells containing all culture conditions but no cells were used as blanks. The growth/survival profile of the cells was quantified using MTT (Sigma) 72 hours after plating. Optical density readings of MTT were done in a Benchmark Plus microplate Spectrophotometer (BioRad) at 595 nm with blanks subtracted.

B104 cells = assay: Pro-NTF killing assay (MTT), B104 cells; type: cell-based; conditions: 50 nM, 72 hours, p<0.05
Method: as §6, §7

[4] = competitive ELISA, FIG. 1A, compound at 30 μM

## Cn1c(=O)c2c(ncn2CC(=O)NCCCC(F)(F)F)n(C)c1=O [I-A, 2-(1,3-dimethyl-2,6-dioxo-2,3-dihydro-1H-purin-7(6H)-yl)-N-(4,4,4-trifluorobutyl)acetamide]
p75-Fc
  remaining activity at 30 µM: 74%
TrkA-Fc
  TrkA-Fc binding AVERAGE: 105%
anti-NGF mAb NGF30
  NGF30 binding AVERAGE: 86%

## Cn1c(=O)c2c(ncn2CC(=O)NCCC(F)(F)F)n(C)c1=O [I-F, 2-(1,3-dimethyl-2,6-dioxo-2,3-dihydro-1H-purin-7(6H)-yl)-N-(3,3,3-trifluoropropyl)acetamide]
p75-Fc
  remaining activity at 30 µM: 73%
TrkA-Fc
  TrkA-Fc binding AVERAGE: 91%

## Cn1c(=O)c2c(ncn2CC(=O)N(C(=O)NC2CCCCC2)C2CCCCC2)n(C)c1=O [I-G]
p75-Fc
  remaining activity at 30 µM: 62%
TrkA-Fc
  TrkA-Fc binding AVERAGE: 99%

## CC(C)NC(=O)N(C(=O)Cc1c[nH]c2ccccc12)C(C)C [I-Q, 2-(1H-indol-3-yl)-N-isopropyl-N-(isopropylcarbamoyl)acetamide]
p75-Fc
  remaining activity at 30 µM: 53%

## CC(C)NC(=O)N(C(=O)CCc1c[nH]c2ccccc12)C(C)C [I-R, 3-(1H-indol-3-yl)-N-isopropyl-N-(isopropylcarbamoyl)propanamide]
p75-Fc
  remaining activity at 30 µM: 59%

## Cc1ccc(NC(=O)N(C(=O)CCc2c[nH]c3ccccc23)c2ccc(C)cc2)cc1 [I-S, 3-(1H-indol-3-yl)-N-p-tolyl-N-(p-tolylcarbamoyl)propanamide]
p75-Fc
  remaining activity at 30 µM: 56%

## Cn1c(=O)c2c(ncn2CC(=O)OCCCN)n(C)c1=O [II-D, 3′-Aminopropyl (1,3-dimethyl-2,6-dioxo-2,3-dihydro-1H-purin-7(6H)-yl)acetate]
p75-Fc
  remaining activity at 30 µM: 69%
TrkA-Fc
  TrkA-Fc binding AVERAGE: 116%
anti-NGF mAb NGF30
  NGF30 binding AVERAGE: 91%

## Cn1c(=O)c2c(ncn2CC(=O)OCCCNC(=O)OCc2ccccc2)n(C)c1=O [II-E, 3′-(Benzyloxycarbonylamino)propyl (1,3-dimethyl-2,6-dioxo-2,3-dihydro-1H-purin-7(6H)-yl)acetate]
p75-Fc
  remaining activity at 30 µM: 56%
TrkA-Fc
  TrkA-Fc binding AVERAGE: 94%
anti-NGF mAb NGF30
  NGF30 binding AVERAGE: 89%

## COC(=O)Cn1cnc2c1c(=O)n(C)c(=O)n2C [II-H]
p75-Fc
  remaining activity at 30 µM: 72%
TrkA-Fc
  TrkA-Fc binding AVERAGE: 94%

## CCCn1c(=O)c2c(ncn2CC(=O)OC)n(CCC)c1=O [II-N, Methyl 2-(2,6-dioxo-1,3-dipropyl-2,3-dihydro-1H-purin-7(6H)-yl)acetate]
p75-Fc
  remaining activity at 30 µM: 83%

## CN(C)CCCNC(=O)Cn1cnc2c1c(=O)n(C)c(=O)n2C [LM-24, reference compound]
p75-Fc; [4]
  effect on NGF-p75NTR interaction: antagonized NGF-p75NTR interactions selectively
[1]
  prevention of RGC death: significantly prevent the death of RGCs
TrkA-Fc; [4]
  effect on binding of TrkA to NGF: did not interfere
[2]
  preservation of NGI thickness (FD-OCT): very limited preservation of the NGI thickness
anti-NGF mAb NGF30; [4]
  effect on mAb NGF30 binding to NGF: did not interfere
[3]
  RGCs surviving: 21%

## Pro-NGF: precursor of nerve growth factor (Alomone Labs), pro-apoptotic p75 ligand
nnr5 cells
  cell viability (MTT), growth factor alone: reduced the viability
B104 cells
  cell viability (MTT), growth factor alone: reduced the viability

B1: pro-BDNF: precursor of brain derived neurotrophic factor (Alomone Labs), pro-apoptotic p75 ligand (protein, UniProt P23560 19-247, looked up)
pro-form: APMKEANIRGQGGLAYPGVRTHGTLESVNGPKAGSRGLTSLADTFEHVIEELLDEDQKVRPNEENNKDADLYTSRVMLSSQVPLEPPLLFLLEEYKNYLDAANMSMRVRRHSDPARRGELSVCDSISEWVTAADKKTAVDMSGGTVTVLEKVPVSKGQLKQYFYETKCNPMGYTKEGCRGIDKRHWNSQCRTTQSYVRALTMDSKKRIGWRFIRIDTSCVCTLTIKRGR
modifications: pro-form
notes: precursor of brain derived neurotrophic factor (Alomone Labs), pro-apoptotic p75 ligand
nnr5 cells
  cell viability (MTT), growth factor alone: reduced the viability
B104 cells
  cell viability (MTT), growth factor alone: reduced the viability
